Measured values as given in patent US5776946A, “Peripheral benzodiazepine receptor ligands as antiinflammatory agents” (priority 1995, dated 1998).
Where “and” joins values, the source holds several entries; their conditions need not be identical. Identical values can stand only once. Like-named read-outs stand apart in the source and are kept apart here.

What was measured:
[1] = biological target: T1, peripheral benzodiazepine receptors in brain (Homo sapiens, UniProt P30536); conditions: read-out: ability to displace bound PK 11195 from peripheral benzodiazepine receptors (Ki); cited from earlier work
T1 construct: host or cells: brain (Doble et al., 1987)

[2] = tested on: cultured rat peritoneal macrophages; assay: Respiratory burst in cultured rat peritoneal macrophages activated by opsonized zymosan; type: cell-based; conditions: Peritoneal macrophage; for activity at 1000 µM: 10^-3 M
From the text: Its main function is to protect the body from hostile invaders by generating superoxide radicals, but inappropriate activation can damage host tissue. Oxidative stress is believed to be one of the more harmful concomitants of inflammation. The respiratory burst system can be activated in cultured peritoneal macrophages in multiple ways, including exposure to zymosan particles opsonized by complement proteins (Klegeris and McGeer, 1994).
For methods see Klegeris and McGeer, 1994.

[3] = biological target: T2, peripheral benzodiazepine receptors, human Alzheimer and control cortical tissue (Homo sapiens, UniProt P30536); assay: Specific high affinity binding of PK 11195 to Alzheimer and control cortical tissue; conditions: PK 11195 at 3 nM
T2 construct: from tissue; host or cells: human cortical brain tissue, Alzheimer and neurologically normal control
From the text: The standard method of Schoemaker et al., 1983 was employed.

[4] = biological target: T3, peripheral benzodiazepine receptors, mouse peritoneal macrophages (Mus musculus, UniProt P50637); conditions: read-out: affinity; cited from earlier work
T3 construct: host or cells: mouse peritoneal macrophages (Zavala and Lenfant, 1987b)

MRL-lpr mice = assay: CFA-induced disease in MRL-lpr mice, joint histopathology; type: in vivo, mouse; conditions: for Severity of Disease Sign Total / Severity of Disease Sign (1) subsynovial inflammation / Severity of Disease Sign (2) synovial hyperplasia / Severity of Disease Sign (3) pannus formation / Severity of Disease Sign (4) bone destruction: day 30, mean ± S.D.; for Severity of Disease Sign (1) subsynovial inflammation / Severity of Disease Sign (2) synovial hyperplasia / Severity of Disease Sign (3) pannus formation / Severity of Disease Sign (4) bone destruction: scale 0-4
From the text: MRL-lpr mice are a widely studied strain which spontaneously develop a particularly severe autoimmune disorder. Pathologies that are found in a variety of human idiopathic inflammatory and autoimmune diseases are reproduced in these animals. They are therefore considered to be an outstanding model for such individual human diseases, although the pathology represents a combination of several of them. They are regarded as the best animal model for rheumatoid arthritis (Koopman and Gay, 1988) , systemic lupus erythematous (Bartlett et al., 1988)., and Sjogren's syndrome (Hayashi et al., 1994). […] They develop behavioral and neurological deficits (Sakic et al., 1993), as well as evidence of CNS inflammation (Vogelweid et al., 1991) which is seen in isolation in such diseases as Alzheimer type dementia and multiple sclerosis, but is also part of the syndrome in systemic lupus erythematosus and Sjogren's syndrome. The model is considered to be a particularly demanding one for screening antiinflammatory agents because of the severity and comprehensiveness of the disease pathology. […] The lesions include synovial inflammation, synovial cell proliferation, pannus formation, and articular cartilage erosion and bone destruction. Only powerful antiinflammatory agents will inhibit the devastating changes that accompany this genetic disorder. Mice of the MRL-lpr strain spontaneously develop a mild form of the disease at several months of age. The onset can be accelerated by injection of complete Freund's adjuvant (CFA) supplemented to 10 mg/ml with heat-inactivated M. tuberculosis, at 13-14 weeks of age, with 67-82% of animals becoming affected within 1 month (Ratkay et al., 1994; Ratkay et al., 1993).
Daily injections were continued until day 14. The animals were sacrificed at day 30 and joint histopathology assessed. […] The results were compared with those in littermates receiving CFA only (N=7). Following sacrifice, animals were evaluated for subsynovial inflammation, synovial hyperplasia, cartilage destruction and pannus formation, and bone destruction.
^A The histopathological changes were assessed on a scale of 0 (no
change) to 4 (severe change) for the following indices: (1) subsynovial
inflammation; (2) synovial hyperplasia; (3) pannus formation; and (4) bon
destruction. For methods see Ratkay et al., 1994.

[5] = biological target: T2, peripheral benzodiazepine receptors, human Alzheimer and control cortical tissue; conditions: McGeer et al., 1988; cited from earlier work
[6] = 10^-4 M, after opsonized zymosan, read-out: Respiratory burst, Percent of Control (± S.E.), substance given After OZ
[7] = 10^-4 M, before opsonized zymosan, read-out: Respiratory burst, Percent of Control (± S.E.), substance given Before OZ
[8] = 10^-5 M, before opsonized zymosan, read-out: Respiratory burst, Percent of Control (± S.E.), substance given Before OZ
[9] = after opsonized zymosan, read-out: Respiratory burst, Percent of Control (± S.E.), substance given After OZ
[10] = before opsonized zymosan, read-out: Respiratory burst, Percent of Control (± S.E.), substance given Before OZ
[11] = read-out: Respiratory burst, Percent of Control (± S.E.), substance given After OZ
[12] = read-out: Respiratory burst, Percent of Control (± S.E.), substance given Before OZ

T2 sequence (P30536 whole entry): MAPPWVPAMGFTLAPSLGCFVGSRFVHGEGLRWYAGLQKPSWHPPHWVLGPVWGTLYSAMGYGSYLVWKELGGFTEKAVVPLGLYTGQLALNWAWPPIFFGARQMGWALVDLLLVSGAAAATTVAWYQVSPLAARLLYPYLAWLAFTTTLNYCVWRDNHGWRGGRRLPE
T1 sequence (P30536 whole entry): as above
T3 sequence (P50637 whole entry): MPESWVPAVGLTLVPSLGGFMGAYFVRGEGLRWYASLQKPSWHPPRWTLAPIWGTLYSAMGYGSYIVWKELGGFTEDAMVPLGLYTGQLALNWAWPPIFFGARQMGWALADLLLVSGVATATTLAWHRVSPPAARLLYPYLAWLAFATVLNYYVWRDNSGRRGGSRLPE

For `CCN(CC)C(=O)C(C)Cc1cc(-c2ccccc2)nc2ccccc12` (single isomer, unassigned) [PK-14067, 1-N,N-diethyl-a-methyl-2-phenylquinoline-4-propranamide], the Ki [1] is listed as 44 nM.
Compound `Nc1ccc(S(=O)(=O)c2ccc(N)cc2)cc1` [Dapsone, dapsone] has an activity at 100 µM [2, 6] of 90.3 ± 6.2%, an activity at 100 µM [2, 7] of 73.6 ± 4.6% and an activity at 10 µM ([2]; 10^-5 M, after opsonized zymosan, read-out: Respiratory burst, Percent of Control (± S.E.), substance given After OZ) of 96.4 ± 1.6%. It also gave an activity at 10 µM [2, 8] of 94.7 ± 1.3%.
With `COc1ccc2c(c1)c(CC(=O)O)c(C)n2C(=O)c1ccc(Cl)cc1` [Indomethacin, indomethacin] the activity at 1000 µM [2, 9] was 64.8 ± 9.4%, the activity at 1000 µM [2, 10] was 36 ± 12.5% and the activity at 100 µM [2, 6] was 101 ± 2.1%. The activity at 100 µM [2, 7] was 86.3 ± 10.9% and the activity at 10 µM [2, 8] was 101 ± 3.5%.
With `CCC(C)N(C)C(=O)c1cc2ccccc2c(-c2ccccc2Cl)n1` (stereo not drawn) [PK 11195, 1-(2-chlorophenyl)-N-methyl-N-(1-methylpropyl)-3-isoquinolinecarboxamide] the “Specific High Affinity Binding, Alzheimer cortical tissue, Means ± S.E.” value ([3]; Alzheimer) was 449 ± 25 fentamoles/mg protein, the “Specific High Affinity Binding, Alzheimer cortical tissue, individual cases” value ([3]; Alzheimer) was 480 fentamoles/mg protein and 585 fentamoles/mg protein and 400 fentamoles/mg protein and 450 fentamoles/mg protein and 395 fentamoles/mg protein and 408 fentamoles/mg protein and 422 fentamoles/mg protein and the “Specific High Affinity Binding, Control cortical tissue, Means ± S.E.” value ([3]; Control) was 165 ± 25 fentamoles/mg protein. The “Specific High Affinity Binding, Control cortical tissue, individual cases” value ([3]; Control) was 201 fentamoles/mg protein and 94 fentamoles/mg protein and 265 fentamoles/mg protein and 118 fentamoles/mg protein and 141 fentamoles/mg protein and 111 fentamoles/mg protein and 222 fentamoles/mg protein, the Kd [4] was 5.6 nM and the activity at 1 µM [2, 11] was 97.9 ± 0.2%. The activity at 10 µM [2, 11] was 83.5 ± 8.7%, the activity at 100 µM [2, 11] was 47.1 ± 13.6% and the activity at 1 µM [2, 12] was 99 ± 5.6%. It also gave an activity at 10 µM [2, 12] of 87.9 ± 5.5%, an activity at 100 µM [2, 12] of 48.9 ± 10.8% and an inhibition at 100 µM ([2]; read-out: inhibition of respiratory burst) greater than 50%. For the same compound, the “Severity of Disease Sign Total” value (MRL-lpr mice; 0.1 mg/kg s.c. daily to day 14) was 1.40 ± 0.48, the “Severity of Disease Sign (1) subsynovial inflammation” value (MRL-lpr mice; 0.1 mg/kg s.c. daily to day 14) was 0.70 ± 0.26 and the “Severity of Disease Sign (2) synovial hyperplasia” value (MRL-lpr mice; 0.1 mg/kg s.c. daily to day 14) was 0.70 ± 0.26. For the same compound, the “Severity of Disease Sign (3) pannus formation” value (“Severity … (3) pannus formation” below) (MRL-lpr mice; 0.1 mg/kg s.c. daily to day 14) was 0.00 ± 0.00, the “Severity of Disease Sign (4) bone destruction” value (shortened to “Severity … (4) bone destruction”) (MRL-lpr mice; 0.1 mg/kg s.c. daily to day 14) was 0.00 ± 0.00 and the “Severity of Disease Sign Total” value (MRL-lpr mice; 0.5 mg/kg s.c. daily to day 14) was 1.25 ± 0.53. For the same compound, the “Severity of Disease Sign (1) subsynovial inflammation” value (MRL-lpr mice; 0.5 mg/kg s.c. daily to day 14) was 0.62 ± 0.26, the “Severity of Disease Sign (2) synovial hyperplasia” value (MRL-lpr mice; 0.5 mg/kg s.c. daily to day 14) was 0.50 ± 0.27 and the “Severity … (3) pannus formation” value (MRL-lpr mice; 0.5 mg/kg s.c. daily to day 14) was 0.00 ± 0.00. The “Severity … (4) bone destruction” value (MRL-lpr mice; 0.5 mg/kg s.c. daily to day 14) was 0.12 ± 0.12, the “Severity of Disease Sign Total” value (MRL-lpr mice; 1 mg/kg s.c. daily to day 14) was 1.14 ± 0.14 and the “Severity of Disease Sign (1) subsynovial inflammation” value (MRL-lpr mice; 1 mg/kg s.c. daily to day 14) was 0.43 ± 0.20. For the same compound, the “Severity of Disease Sign (2) synovial hyperplasia” value (MRL-lpr mice; 1 mg/kg s.c. daily to day 14) was 0.71 ± 0.18, the “Severity … (3) pannus formation” value (MRL-lpr mice; 1 mg/kg s.c. daily to day 14) was 0.00 ± 0.00 and the “Severity … (4) bone destruction” value (MRL-lpr mice; 1 mg/kg s.c. daily to day 14) was 0.00 ± 0.00. For the same compound, the “reduction of the total histopathological score observed in control mice” value (MRL-lpr mice; even at the lowest dose of 0.1 mg/kg) was “more than 70%” and the “efficacy compared with results of Ratkay et al., 1994” value (MRL-lpr mice; lowest dose 0.1 mg/kg) was “more effective than ten times that dose of indomethacin, forty times that dose of cyclosporin”.
With `C[C@]12C=CC(=O)C=C1CC[C@@H]1[C@@H]2C(=O)C[C@@]2(C)[C@H]1CC[C@]2(O)C(=O)CO` [Prednisone, prednisone] the activity at 1000 µM [2, 9] was 67 ± 11.6%, the activity at 1000 µM [2, 10] was 62.5 ± 8.1% and the activity at 100 µM [2, 6] was 102 ± 4.9%. It also gave an activity at 100 µM [2, 7] of 88.8 ± 7.2%.
In the case of `CN1C(=O)CN=C(c2ccc(Cl)cc2)c2cc(Cl)ccc21` [Ro 5-4864, 4'-chlorodiazepam], the Ki [1] is given as 178 nM, the activity at 1 µM [2, 12] is given as 94.6 ± 12.2% and the activity at 10 µM [2, 12] is given as 85.4 ± 2.5%. The activity at 100 µM [2, 12] was 74.7 ± 1.9% and the “high affinity binding to Alzheimer versus neurologically normal brain tissue” value [5] was “greater high affinity binding to Alzheimer brain tissue than to neurologically normal brain tissue”.
